In publication PMC7463632, “Conformational Restriction of Histamine with a Rigid Bicyclo[3.1.0]hexane Scaffold Provided Selective H3 Receptor Ligands” (Molecules, 2020):
“And” between values parts separate entries of the source, which are not always exact repeats. Equal values may be shown once. Read-outs that look alike come from different tables or passages of the source.

Tests used:
[1] = target: T1, human histamine H3 receptor (Homo sapiens, UniProt Q9Y5N1); assay: Radioligand binding assay with [3H]Nα-methylhistamine on CHO cell membranes expressing recombinant human H3 receptor; conditions: for Ki: human H3R, CHO cell membranes, [3H]Nα-methylhistamine, mean ± SEM (n = 3–5); for Selectivity Ratio (H4/H3): ratio of Ki H4 / Ki H3, human receptors
T1 construct: purchased Euroscreen (Brussels, Belgium); host or cells: CHO cells (membrane preparations)
Protocol: (§1) The binding affinities of 6, 7, ent-6, and ent-7 for the human H3R subtype with [^3H]N^α-methylhistamine and the human H4R subtype with [^3H]histamine were evaluated using cell membranes expressing human H3R or H4R according to the previously reported method, and the results are summarized in Table 1.
(§2) The protocol of the biological assay was according to the previous report. The membrane preparations of Chinese hamster ovary (CHO) cells, which expressed recombinant human histamine H3 or H4 receptors, were purchased from Euroscreen (Brussels, Belgium). The binding assay of the H3 and H4 receptors was performed using [^3H]N^α-methylhistamine (Perkin-Elmer, Boston, MA) and [^3H]histamine (Perkin-Elmer), respectively. Briefly, the membrane preparations (7.5–15 µg protein) were incubated with different concentrations of [^3H]N^α-methylhistamine (0.1–3 nM) and of [^3H]histamine(1–30 nM) for 30 min at 25 °C in 50 mM Tris/5 mM MgCl2 buffer (pH 7.4). The reaction was terminated by rapid filtration (Cell Harvester, Brandel Co., Gaithersburg, MD) through Whatman GF/B glass fiber filters presoaked for 2 h in 0.5% polyethyleneimine, and the filters were rinsed three times with an ice-cold buffer (2 mL). Membrane-bound radioactivity was extracted from filters overnight in scintillation fluid (toluene, 2 L; Triton X-100, 1 L; 2,5-diphenyloxazole, 15 g; 1,4-bis[2-(5-phenyloxazolyl)]benzene, 0.3 g) and determined in a liquid scintillation counter. […] The apparent dissociation constants (Kd) for each radioligand was determined by nonlinear regression analysis of the curve generated by plotting specific binding concentration versus concentration of the radioligand with GraphPad Prism (GraphPad Software, San Diego, CA) using a one-site binding curve equation. […] The inhibition constant, Ki, was calculated from the equation, Ki = IC50/(1 + L/Kd), where L equals the concentration of each radioligand. The data were presented as mean ± SE (n = 3–5).

[2] = target: T2, human histamine H4 receptor (Homo sapiens, UniProt Q9H3N8); assay: Radioligand binding assay with [3H]histamine on CHO cell membranes expressing recombinant human H4 receptor; conditions: human H4R, mean ± SEM (n = 3–5)
T2 construct: purchased Euroscreen (Brussels, Belgium); host or cells: CHO cells (membrane preparations)
Protocol: as §1, §2

[3] = target: T1, human histamine H3 receptor; conditions: cited from earlier work; for Ki: human H3R, [3H]Nα-methylhistamine, mean ± SEM; for Selectivity Ratio (H4/H3): ratio of Ki H4 / Ki H3, human receptors
[4] = target: T2, human histamine H4 receptor; set-up: method as in PMID 16942032; conditions: human H4R, [3H]histamine; mean ± SEM; cited from earlier work

T2 sequence (Q9H3N8 whole entry): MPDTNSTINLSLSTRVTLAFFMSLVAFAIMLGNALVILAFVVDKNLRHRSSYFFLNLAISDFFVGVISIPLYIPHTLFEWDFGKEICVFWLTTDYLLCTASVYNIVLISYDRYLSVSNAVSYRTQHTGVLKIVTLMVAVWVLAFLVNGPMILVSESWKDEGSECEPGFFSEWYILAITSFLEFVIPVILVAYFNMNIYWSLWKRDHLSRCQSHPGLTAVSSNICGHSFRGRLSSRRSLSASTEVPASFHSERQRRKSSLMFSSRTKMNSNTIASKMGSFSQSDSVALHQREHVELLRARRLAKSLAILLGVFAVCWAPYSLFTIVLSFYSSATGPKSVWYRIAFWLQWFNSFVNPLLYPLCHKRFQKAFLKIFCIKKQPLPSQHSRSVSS
T1 sequence (Q9Y5N1 whole entry): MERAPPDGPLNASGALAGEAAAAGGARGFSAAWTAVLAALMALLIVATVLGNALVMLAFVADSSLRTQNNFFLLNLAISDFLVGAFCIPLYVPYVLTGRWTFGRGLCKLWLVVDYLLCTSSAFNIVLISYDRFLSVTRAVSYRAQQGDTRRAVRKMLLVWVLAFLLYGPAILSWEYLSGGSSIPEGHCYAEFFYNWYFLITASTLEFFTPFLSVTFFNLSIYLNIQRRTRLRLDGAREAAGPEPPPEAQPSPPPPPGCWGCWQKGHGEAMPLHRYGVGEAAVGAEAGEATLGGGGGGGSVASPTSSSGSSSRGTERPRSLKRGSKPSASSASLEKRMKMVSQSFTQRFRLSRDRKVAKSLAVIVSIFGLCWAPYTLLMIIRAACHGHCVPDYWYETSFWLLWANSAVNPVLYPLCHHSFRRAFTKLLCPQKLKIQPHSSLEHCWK

## Clc1ccc(CNC[C@H]2CC[C@@]3(c4c[nH]cn4)C[C@@H]23)cc1 (single isomer, unassigned) [ent-7]
[1]
  Ki: 0.0148 ± 0.0038 µM
  Selectivity Ratio (H4/H3): 4.7
[2]
  Ki: 0.0692 ± 0.021 µM

## Clc1ccc(CNCCC2CC2c2c[nH]cn2)cc1 (stereo not shown) [Compound 3]
[3]
  Ki: 0.0036 ± 0.0004 µM
  Selectivity Ratio (H4/H3): 10.3 and 10
[4]
  Ki: 0.0372 ± 0.0027 µM

## CC[C@@H](CNCc1ccc(Cl)cc1)[C@H]1C[C@@H]1c1c[nH]cn1 [Compound 4]
[1]
  Selectivity Ratio (H4/H3): 1.3
[2]
  Ki: 0.009 ± 0.001 µM

## Clc1ccc(CNC[C@@H]2CC[C@@]3(c4c[nH]cn4)C[C@@H]23)cc1 (single isomer, unassigned) [ent-6]
[1]
  Ki: 0.0219 ± 0.006 µM
  Selectivity Ratio (H4/H3): 19
[2]
  Ki: 0.416 ± 0.155 µM

## Clc1ccc(CNCC[C@@H]2C[C@@H]2c2cnc[nH]2)cc1 (single isomer, unassigned) [ent-3]
[3]
  Ki: 0.0084 ± 0.0015 µM
  Selectivity Ratio (H4/H3): 0.9
[4]
  Ki: 0.0076 ± 0.0004 µM

## CC[C@H](CNCc1ccc(Cl)cc1)[C@H]1C[C@@H]1c1c[nH]cn1 [Compound 5]
[1]; H3R Ki of 5 compared with 3
  fold lower H3R binding affinity than that of 3: more than 15 fold
[1]
  Selectivity Ratio (H4/H3): 1.2
[2]
  Ki: 0.0765 ± 0.014 µM

## Clc1ccc(CNC[C@@H]2CC[C@]3(c4c[nH]cn4)C[C@H]23)cc1 [Compound 7]
[1]
  Ki: 0.0056 ± 0.0016 µM
[2]
  Ki: 0.602 ± 0.343 µM

## Cl.Cl.Clc1ccc(CNC[C@H]2CC[C@]3(c4c[nH]cn4)C[C@H]23)cc1 [Compound 6, (1S,4S,5R)-4-[N-(4-Chlorobenzyl)aminomethyl]-1-(1H-imidazol-4-yl)bicyclo[3.1.0]hexane dihydrochloride]
[1]
  Ki: 0.0316 ± 0.0082 µM
  Selectivity Ratio (H4/H3): 16
[2]
  Ki: 0.501 ± 0.201 µM
